In the NIST ThermoML archive (doi:10.1021/je3013638):
± gives the expanded uncertainty stated by the source.

Conditions: Liquid, Closed cell (Static) method

Nc1cc(Cl)cc(Cl)c1 [3,5-dichloroaniline]
vapor or sublimation pressure (446.6 K): 10.25 ± 0.13 kPa | vapor or sublimation pressure (453.88 K): 12.95 ± 0.15 kPa | vapor or sublimation pressure (457.69 K): 14.44 ± 0.17 kPa | vapor or sublimation pressure (463.14 K): 16.64 ± 0.19 kPa | vapor or sublimation pressure (464.4 K): 17.2 ± 0.2 kPa | vapor or sublimation pressure (466.41 K): 18.21 ± 0.22 kPa | vapor or sublimation pressure (468.53 K): 19.57 ± 0.23 kPa | vapor or sublimation pressure (469.09 K): 19.87 ± 0.22 kPa | vapor or sublimation pressure (470.18 K): 20.2 ± 0.23 kPa | vapor or sublimation pressure (473.66 K): 22.16 ± 0.3 kPa | vapor or sublimation pressure (474.48 K): 23.01 ± 0.28 kPa | vapor or sublimation pressure (475.29 K): 23.48 ± 0.26 kPa | vapor or sublimation pressure (477.65 K): 24.67 ± 0.28 kPa | vapor or sublimation pressure (481.31 K): 27.19 ± 0.32 kPa | vapor or sublimation pressure (484.05 K): 29.6 ± 0.33 kPa | vapor or sublimation pressure (487.88 K): 32.05 ± 0.36 kPa | vapor or sublimation pressure (490.85 K): 35.09 ± 0.41 kPa | vapor or sublimation pressure (492.54 K): 36.63 ± 0.41 kPa | vapor or sublimation pressure (495.3 K): 38.71 ± 0.43 kPa | vapor or sublimation pressure (497.31 K): 41.11 ± 0.46 kPa | vapor or sublimation pressure (500.72 K): 44.06 ± 0.49 kPa | vapor or sublimation pressure (503.96 K): 47.64 ± 0.53 kPa | vapor or sublimation pressure (507.34 K): 51.52 ± 0.58 kPa | vapor or sublimation pressure (509.76 K): 55.17 ± 0.62 kPa | vapor or sublimation pressure (512.08 K): 58.05 ± 0.63 kPa | vapor or sublimation pressure (513.94 K): 60.01 ± 0.66 kPa | vapor or sublimation pressure (516.09 K): 63.13 ± 0.71 kPa | vapor or sublimation pressure (518.15 K): 66.66 ± 0.74 kPa | vapor or sublimation pressure (519.82 K): 68.55 ± 0.75 kPa | vapor or sublimation pressure (521.75 K): 71.6 ± 0.81 kPa | vapor or sublimation pressure (523.61 K): 75.31 ± 0.84 kPa | vapor or sublimation pressure (525.72 K): 78.65 ± 0.85 kPa | vapor or sublimation pressure (528.31 K): 82.54 ± 0.91 kPa | vapor or sublimation pressure (530.51 K): 87.17 ± 0.96 kPa | vapor or sublimation pressure (532.9 K): 91.08 ± 1 kPa | vapor or sublimation pressure (534.94 K): 95.84 ± 1.1 kPa
